Like-named read-outs stand apart in the source and are kept apart here.
How the values were obtained:
[1] = Efficacy in hAR100Q murine model of SBMA (body weight, grip strength, treadmill, survival); type: in vivo, mouse
From the text: (§1) Male mice harboring approximately 73±14 copies of full-length human AR harboring 100 CAG repeats in exon 1 (hAR100Q) (“hAR100Q mice”) were used in this study. hAR100Q mice were obtained from mice (C57BL/6J background) expressing heterozygous human […] AR100Q (AR100Q+/−) under the control of the cytomegalovirus immediate-early enhancer and the chicken beta-actin (pCAGGS) promoter. These transgenic lines were maintained, and the colony expanded by breeding with C57BL/6J (Jackson Laboratory) wild-type (WT) mice.
(§2) A total of […] hAR100Q and 20 littermate controls were used for this study. Each genotype was divided into two groups of 10 (control vs Compound A) giving a total of four separate groups (WT control, WT Compound A, hAR100Q control, and hAR100Q Compound A). All mice were fed control chow beginning at 4 weeks of age. At 5 weeks of age, treated groups were switched to Compound A-formulated chow and the remaining mice were fed control chow. Body weights were recorded weekly starting at 5 weeks of age.
(§3) Compound A was formulated at 100 parts per million (ppm) Compound A in rodent chow (Purina #5015). This dose level (100 ppm) approximates a 15 mg/kg dose for a mouse that weighs 20 g and consumes 3 g of chow per day. For control chow, rodent chow (Purina #5015) was re-pelleted in an identical manner to the Compound A-formulated chow.
(§4) A grip strength apparatus was utilized to measure the force exerted by the forepaws only, or all four paws of mice once per week beginning at 7 weeks of age. The apparatus was placed on a sturdy flat lab bench and the apparatus's grid wire mesh was used for all four paws. Individual mice grasped a wire mesh (all four paws) and were gently pulled by the base of their tail to measure their maximum force exerted to maintain their grip. The grip strength assay was conducted 6 times per mouse, for all four paws.
(§5) A Touchscreen Treadmill was utilized to analyze length of time running at increasing speeds until exhaustion. Individual mice ran on a flat treadmill with a graded acceleration protocol consisting of 10 meters (m)/min. for the first 40 min., with the speed increasing thereafter by increments of 1 m/min. every 10 min. for 30 min., and then finally increasing speed by increments of 1 m/min. every 5 min. until the mice were exhausted. The exhaustion was determined by 5 consecutive seconds or 20 overall seconds of failure to exercise (by staying on shock rods at the start of the treadmill). Treadmill training was performed for 2 days before the first week of testing. The training protocol on day 1 consisted of 5 min. at 8 m/min, while day 2 consisted of 5 min. at 8 m/min. followed by 5 min. at 10 m/min.
(§6) In the murine model of SBMA used here (hereafter referred to as hAR100Q mice), which also expresses endogenous mouse AR, approximately 73±14 copies of full-length human AR with 100 CAG repeats (hAR100Q) are driven by the pCAGGS promoter (Chivet, M. et al. 2020, Cells 9, 325). Heterologous expression of hAR100Q results in muscle atrophy, motor deficits, and premature death (Chivet, M. et al. 2020, Cells 9, 325). Symptom onset starts as early as 8 weeks of age and get progressively worse until week 13-14, at which time mice are euthanized because of extreme immobility. In this study, male hAR100Q mice and littermate controls (10 mice in each group) were fed vehicle chow or Compound A-formulated chow at an approximate dose of 15 mg/kg. In-diet dosing was used in lieu of PO dosing due to the fragile nature of this disease model. Compound A-formulated chow was introduced at 5 weeks of age. In addition to weekly weight measurements, mice were evaluated using behavioral assays, including weekly grip strength measurements and forced treadmill tests at 11 weeks of age.

hAR100Q mice = assay: as above; type: in vivo, mouse
From the text: as §1, §2, §3, §4, §5, §6

AR = AR degradation in hiPSC myotubes in the presence of dihydrotestosterone (DHT); type: cell-based, human
From the text: FIG. 11 is a representative dose response curve showing mean AR concentration in DMSO treated cells plotted against Compound A concentration in SBMA patient-derived hiPSC lines differentiated into myotubes.
Control and SBMA hiPSCs were differentiated into myotubes as previously described (Caron, L. et al. 2016, STEM CELLS Transl. Med. 5, 1145-1161) using the skeletal muscle differentiation kit (Amsbio). hiPSCs were dissociated to single cells using Accutase and plated on Geltrex-coated 10 cm culture plates at a density of 200,000 cells per plate with SBMA hiPSCs in skeletal muscle induction media (SKM01, AMSBIO). Media changes were performed every second day until cells were confluent (˜7 days). The resulting myogenic precursor cells were then dissociated to single cells using Accutase and replated on Matrigel-coated 24-well tissue culture plate with 500 μL of cells at 35,000 cells per mL in skeletal myoblast media (SKM02, AMSBIO). Half media changes were performed every second day until myoblasts reached confluence (˜7 days). The media was then switched to myotube medium (SKM03, ASMBIO). Media changes every second day until myotube formation was confirmed by microscopy. […] AR protein was measured by capillary electrophoresis. […]

CC(C)N(CC1CCN(c2ncc(C(=O)N[C@H]3C(C)(C)[C@H](Oc4ccc(C#N)c(Cl)c4)C3(C)C)cn2)CC1)[C@H]1C[C@H](Oc2ccc3c(c2)C(=O)N(C2CCC(=O)NC2=O)C3=O)C1 (stereo partly drawn) [Compound A, N-((1r,3r)-3-(3-chloro-4-cyanophenoxy)-2,2,4,4-tetramethylcyclobutyl)-2-(4-((((1r,3r)-3-((2-(2,6-dioxopiperidin-3-yl)-1,3-dioxoisoindolin-5-yl)oxy)cyclobutyl)(isopropyl)amino)methyl)piperidin-1-yl)pyrimidine-5-carboxamide]
all paw grip strength in WT littermates ([1]; WT littermates, chow approx. 15 mg/kg, vs vehicle): similar
muscle endurance, forced treadmill distance, WT littermates ([1]; WT littermates, week 11, vehicle versus compound chow): No differences were observed
body weight over time in WT littermates ([1]; male WT littermates, formulated chow approx. 15 mg/kg): no impact
median lifespan (hAR100Q mice; hAR100Q mice, formulated chow, birth to euthanasia): 151 days
muscle endurance, forced treadmill distance, hAR100Q mice (hAR100Q mice; hAR100Q mice, week 11, chow approx. 15 mg/kg): performed as well as WT littermates
all paw grip strength in hAR100Q mice (hAR100Q mice; hAR100Q mice, weekly from 7 weeks, chow approx. 15 mg/kg): delayed the decline and magnitude of grip strength decline
body weight over time in hAR100Q mice (hAR100Q mice; male hAR100Q mice, formulated chow approx. 15 mg/kg from 5 weeks of age, vs vehicle): rescued weight loss
DC50 (AR; DHT present at 500 pM, read-out: DC50 in hiPSC myotubes with DHT): 5.9 nM
DC50 (AR; without any DHT (0 pM), read-out: DC50 in hiPSC myotubes without DHT): 0.5 nM

From patent US12496301B2, “Use of androgen receptor degrader for the treatment of spinal and bulbar muscular atrophy” (Arvinas Operations, Inc., priority 2023, dated 2025)
